Where “and” joins values, the source holds several entries; their conditions need not be identical. Equal entries are not always repeated.
What was measured:
[1] = test system: KB (human mouth epidermal carcinoma) cell line; test: MTT cytotoxicity assay, KB cells; conditions: for IC50: Homo sapiens, KB, 72 h, read-out: IC50, KB; for Selective index, KB: ratio IC50 in Hek-293 to IC50 in KB
[2] = test system: A549 (human lung adenocarcinoma) cell line; test: MTT cytotoxicity assay, A549 cells; conditions: for IC50: Homo sapiens, A549, 72 h, read-out: IC50, A549; for Selective index, A549: ratio IC50 in Hek-293 to IC50 in A549
[3] = test system: MCF7 (human breast adenocarcinoma) cell line; test: MTT cytotoxicity assay, MCF7 cells; conditions: for IC50: Homo sapiens, MCF7, 72 h, read-out: IC50, MCF7; for Selective index, MCF7: ratio IC50 in Hek-293 to IC50 in MCF7
[4] = test system: HepG2 (human hepatocellular carcinoma) cell line; test: MTT cytotoxicity assay, HepG2 cells; conditions: for IC50: Homo sapiens, HepG2, 72 h, read-out: IC50, HepG2; for Selective index, HepG2: ratio IC50 in Hek-293 to IC50 in HepG2
[5] = test system: Hek-293 (human embryonic kidney 293) cell line; test: MTT cytotoxicity assay, normal Hek-293 cells; conditions: HEK293, 72 h, read-out: IC50, Hek-293
[6] = test system: KB, A549, and HepG2 cell lines; test: MTT cytotoxicity assay, summary over KB, A549 and HepG2; conditions: Homo sapiens, read-out: IC50 values ranging over KB, A549, and HepG2 cell lines

SMILES | IC50 [1] | Selective index, KB [1] | IC50 [2] | Selective index, A549 [2] | IC50 [3] | Selective index, MCF7 [3] | IC50 [4] | Selective index, HepG2 [4] | IC50 [5] | fold higher toxicity when compared with ellipticine, KB [1] | fold higher toxicity when compared with ellipticine, HepG2 [4] | IC50 [6]
O=C1OCC2=C1C(c1ccsc1)C1=C(N2)C(=O)c2ccccc2C1=O (stereo not drawn) [Compound 13a, 11-(Thiophen-3-yl)-4,11-dihydrobenzo[g]furo[3,4-b]quinolin-1,5,10(3H)-trione] | 1.43 ± 0.14 µM | 16.00 | 0.48 ± 0.03 µM | 47.90 | 2.06 ± 0.66 µM | 11.12 | 1.43 ± 0.15 µM | 16.00 | 22.9 ± 2.18 µM | – | – | –
O=C1OCC2=C1C(c1ccoc1)C1=C(N2)C(=O)c2ccccc2C1=O (stereo not drawn) [Compound 13b, 11-(Furan-3-yl)-4,11-dihydrobenzo[g]furo[3,4-b]quinolin-1,5,10(3H)-trione] | 10.1 ± 1.17 µM | 1.37 | 3.09 ± 0.39 µM | 4.47 | 12.6 ± 1.14 µM | 1.09 | 12.4 ± 1.29 µM | 1.12 | 13.8 ± 1.41 µM | – | – | –
O=C1OCC2=C1C(c1ccco1)C1=C(N2)C(=O)c2ccccc2C1=O (stereo not drawn) [Compound 13c, 11-(Furan-2-yl)-4,11-dihydrobenzo[g]furo[3,4-b]quinolin-1,5,10(3H)-trione] | 14.2 ± 1.23 µM | 1.02 | 3.06 ± 0.27 µM | 4.75 | 12.2 ± 1.14 µM | 1.20 | 3.75 ± 0.69 µM | 3.88 | 14.6 ± 1.35 µM | – | – | –
O=C1OCC2=C1C(c1ccc(Br)o1)C1=C(N2)C(=O)c2ccccc2C1=O (stereo not drawn) [Compound 13d, 11-(5-Bromofuran-2-yl)-4,11-dihydrobenzo[g]furo[3,4-b]quinolin-1,5,10(3H)-trione] | 2.81 ± 0.32 µM | 13.19 | 2.06 ± 0.22 µM | 18.00 | 10.4 ± 1.29 µM | 3.58 | 0.3 ± 0.06 µM | 122 and 122.40 | 37.1 ± 3.3 µM | – | – | –
O=C1OCC2=C1C(c1csc3ccccc13)C1=C(N2)C(=O)c2ccccc2C1=O (stereo not drawn) [Compound 13e, 11-(Benzo[b]thiophen-3-yl)-4,11-dihydrobenzo[g]furo[3,4-b]quinolin-1,5,10(3H)-trione] | 10.9 ± 1.4 µM | 1.02 | 9.94 ± 0.73 µM | 1.12 | 13.1 ± 1.6 µM | 0.85 | 10.4 ± 1.18 µM | 1.07 | 11.2 ± 0.85 µM | – | – | –
O=C1OCC2=C1C(c1coc3ccccc13)C1=C(N2)C(=O)c2ccccc2C1=O (stereo not drawn) [Compound 13f, 11-(Benzofuran-3-yl)-4,11-dihydrobenzo[g]furo[3,4-b]quinolin-1,5,10(3H)-trione] | 1.1 ± 0.09 µM | 17.98 | 7.02 ± 0.91 µM | 2.81 | 12.7 ± 1.2 µM | 1.56 | 1.3 ± 0.13 µM | 15.10 | 19.7 ± 1.7 µM | ~1.8 fold | ~1.8 fold | –
O=C1OCC2=C1C(c1cc3ccccc3s1)C1=C(N2)C(=O)c2ccccc2C1=O (stereo not drawn) [Compound 13g, 11-(Benzo[b]thiophen-2-yl)-4,11-dihydrobenzo[g]furo[3,4-b]quinolin-1,5,10(3H)-trione] | 9.94 ± 0.65 µM | 1.31 | 3.13 ± 0.2 µM | 4.18 | 11.3 ± 1.78 µM | 1.16 | 12.7 ± 1.4 µM | 1.03 | 13.1 ± 1.7 µM | – | – | –
O=C1OCC2=C1C(c1cnc(Cl)s1)C1=C(N2)C(=O)c2ccccc2C1=O (stereo not drawn) [Compound 13h, 11-(2-Chlorothiazol-5-yl)-4,11-dihydrobenzo[g]furo[3,4-b]quinolin-1,5,10(3H)-trione] | 1.12 ± 0.1 µM | 1.23 | 0.16 ± 0.02 µM | 8.55 | 1.07 ± 0.1 µM | 1.29 | 0.81 ± 0.11 µM | 1.71 | 1.38 ± 0.18 µM | – | – | –
Cc1c(C2C3=C(COC3=O)NC3=C2C(=O)c2ccccc2C3=O)cnn1C (stereo not drawn) [Compound 13i, 11-(1,5-Dimethyl-1H-pyrazol-4-yl)-4,11-dihydrobenzo[g]furo[3,4-b]quinolin-1,5,10(3H)-trione] | 10.7 ± 1.27 µM | 1.14 | 2.27 ± 0.22 µM | 5.40 | 10.4 ± 0.8 µM | 1.18 | 7.8 ± 0.53 µM | 1.57 | 12.3 ± 1.13 µM | – | – | –
O=C1OCC2=C1C(c1ccn[nH]1)C1=C(N2)C(=O)c2ccccc2C1=O (stereo not drawn) [Compound 13j, 11-(1H-pyrazol-5-yl)-4,11-dihydrobenzo[g]furo[3,4-b]quinolin-1,5,10(3H)-trione] | 6 ± 0.63 µM | 0.63 | 5.43 ± 0.39 µM | 0.69 | 3.24 ± 0.36 µM | 1.16 | 4.35 ± 0.57 µM | 0.86 | 3.75 ± 0.69 µM | – | – | –
COc1cc(C2C3=C(COC3=O)NC3=C2C(=O)c2ccccc2C3=O)ccn1 (stereo not drawn) [Compound 13k, 11-(2-Methoxypyridin-4-yl)-4,11-dihydrobenzo[g]furo[3,4-b]quinolin-1,5,10(3H)-trione] | 0.27 ± 0.24 µM | 9.30 | 0.27 ± 0.21 µM | 9.30 | 1.34 ± 0.16 µM | 1.86 | 0.23 ± 0.02 µM | 10.81 | 2.48 ± 0.32 µM | – | – | 0.23 to 0.27 µM
O=C1OCC2=C1C(c1ncccc1F)C1=C(N2)C(=O)c2ccccc2C1=O (stereo not drawn) [Compound 13l, 11-(3-Fluoropyridin-2-yl)-4,11-dihydrobenzo[g]furo[3,4-b]quinolin-1,5,10(3H)-trione] | 4.69 ± 0.58 µM | 2.18 | 2.15 ± 0.25 µM | 4.74 | 7.34 ± 0.94 µM | 1.39 | 5.52 ± 0.86 µM | 1.85 | 10.2 ± 1.24 µM | – | – | –
COc1ncc(C(F)(F)F)cc1C1C2=C(COC2=O)NC2=C1C(=O)c1ccccc1C2=O (stereo not drawn) [Compound 13m, 11-(2-Methoxy-5-(trifluoromethyl)pyridin-3-yl)-4,11-dihydrobenzo[g]furo[3,4-b]quinolin-1,5,10(3H)-trione] | 4.63 ± 1.04 µM | 3.61 | 2.83 ± 0.54 µM | 5.92 | 7.26 ± 1.29 µM | 2.31 | 5.83 ± 0.86 µM | 2.87 | 16.7 ± 1.94 µM | – | – | –
Cc1c2ccncc2c(C)c2c1[nH]c1ccccc12 [Ellipticine, ellipticine, reference compound] | 1.95 ± 0.12 µM | 2.88 | 1.42 ± 0.08 µM | 3.94 | 2.09 ± 0.16 µM | 2.68 | 2.11 ± 0.16 µM | 2.65 | 5.6 ± 0.37 µM | – | – | –
